{"source": "patent US20230285282A1", "about": "“OCULAR IMPLANT CONTAINING AN ACTIVE INGREDIENT” (OCULAR THERAPEUTIX, INC., priority 2020, published 2023)", "key": {"[1]": {"conditions": "cited from earlier work"}, "CYP3A4/5": {"system": "CYP3A4/5", "conditions": "cited from earlier work"}, "physchem": {"assay": "physchem", "conditions": "PBS, 37 °C, pH 7.2, aqueous buffer"}, "vascular leakage": {"system": "vascular leakage", "assay": "VEGF challenge, vascular leakage scored by fluorescein angiography", "assay_type": "in vivo, Dutch belted rabbits", "experimental": "For efficacy studies, 12 animals (with and without the implant) received an […] VEGF challenge (1 μg) 48 hours prior to selected time points (1, 2, 3, and 6 months after implant injection; 3 animals euthanized at each time point) to induce vascular proliferation and leakage. Rabbits were followed for 6 months from the administration of the implant. Eyes were imaged 48 hours post VEGF challenge using fluorescein angiography (FA) after intravenous injection of fluorescein and were graded on a scale from 0 to 4 (Table 9). Each eye was scored on the left and right side to account for non-uniformity in inflammatory response. FA scores were then averaged for each eye.\nAnimals from each group were […] challenged with VEGF (1 μg) 48 hours prior to selected time points (0.5, 1, 3, 6, 9, 12, 14, 16, 19, 20, and 21 months) to induce vascular proliferation and leakage. Eyes were imaged 48 hours post VEGF challenge time-points using fluorescein angiography (FA) and were graded on a scale from 0 (normal) to 4 (severe leakage) as described under Example 3.2."}, "[2]": {"conditions": "1.25 mg intravitreal, rabbits; cited from earlier work"}}, "note": "Where two headings read alike, the source gives them in different places.", "data": [{"molecule": "ranibizumab: anti-VEGF agent", "values": [{"measurement": "t1/2 in the human eye", "setting": "[1]", "value": "several days"}]}, {"molecule": "CNC(=O)c1ccccc1Sc1ccc2c(/C=C/c3ccccn3)n[nH]c2c1", "note": "[axitinib, N-methyl-2-[3-((E)-2-pyridin-2-yl-vinyl)-1H-indazol-6-ylsulfanyl]-benzamide]", "values": [{"measurement": "clearance half-life (t1/2)", "setting": "[1]; Rugo et al. 2005", "value": "a few hours"}, {"measurement": "axitinib exposure (Cmax)", "setting": "CYP3A4/5; co-administration with oral ketoconazole", "value": "increased"}, {"measurement": "axitinib exposure (Cmax)", "setting": "CYP3A4/5; co-administration with rifamycin", "value": "decreased"}, {"measurement": "solubility", "setting": "physchem", "value": "0.4 to 0.5", "unit": "µg/mL"}]}, {"molecule": "aflibercept: anti-VEGF agent", "values": [{"measurement": "t1/2 in the human eye", "setting": "[1]", "value": "several days"}]}, {"molecule": "Avastin®: anti-VEGF therapeutic", "values": [{"measurement": "duration of effect post injection", "setting": "vascular leakage; 1.25 mg Avastin only", "value": "≤ 3", "unit": "months"}, {"measurement": "vascular leakage after VEGF challenge", "setting": "vascular leakage; 1.25 mg Avastin only (group 3)", "value": "after 3 months vascular leakage re-occurred"}, {"measurement": "half-life", "setting": "[2]", "value": 158, "unit": "h"}]}]}
